Where “and” joins values, the source holds several entries; their conditions need not be identical. Equal values may be shown once.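 Tested at 5 concentrations; 48 h exposure; 96-well plates; endpoints linearly interpolated, else capped at highest concentration. GI50 = concentration required for 50% inhibition of growth. The concentration for full growth arrest is given as TGI.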
Tests used:
Test in all cases: NCI tumour cell line growth inhibition, 48 h
[1] = tested on: COLO 205 colon
[2] = tested on: EKVX NSCLC
[3] = tested on: HS 578T breast
[4] = tested on: NCI-H522 lung
[5] = tested on: PC-3 prostate
[6] = tested on: SK-MEL-5 melanoma
[7] = tested on: SK-OV-3 ovarian
[8] = tested on: SNB-75 CNS
[9] = tested on: UO-31 renal
[10] = tested on: DU-145 prostate
[11] = tested on: OVCAR-3 ovarian
[12] = tested on: SK-MEL-28 melanoma
[13] = tested on: HOP-92 NSCLC

COc1cccc(-c2cc(=O)c3c(C)ccnc3[nH]2)c1
TGI [1]: 0.0854 µM
TGI [2]: > 100 µM
TGI [3]: > 100 µM
TGI [4]: 0.226 µM
TGI [5]: > 100 µM
TGI [6]: 3.71 µM
TGI [7]: > 100 µM
TGI [8]: 0.0417 µM
TGI [9]: > 100 µM

CCN(CC)C(=S)SS(=O)(=O)c1ccc([N+](=O)[O-])cc1
TGI [1]: > 100 µM
GI50 [10]: 27.2 µM
TGI [10]: 82.4 µM
TGI [2]: > 100 µM
GI50 [3]: > 100 µM
TGI [3]: > 100 µM
GI50 [11]: 35.4 µM
TGI [11]: > 100 µM
GI50 [12]: 19 µM
TGI [12]: 38.3 µM
TGI [6]: 29.2 µM
TGI [7]: > 100 µM
TGI [9]: 47 µM

CCOC(=O)C(NC(=O)Nc1ccc(Cl)c(Cl)c1)C(F)(F)F (stereo not drawn)
TGI [1]: > 100 µM
TGI [2]: > 100 µM
TGI [3]: > 100 µM
TGI [5]: > 100 µM
TGI [12]: > 100 µM
TGI [6]: > 100 µM
TGI [7]: > 100 µM
TGI [8]: > 100 µM
TGI [9]: > 100 µM

CC(=O)OCC1=C(C)C(OC(=O)C(OC(C)=O)[C@@H](NC(=O)c2ccccc2)c2ccccc2)CCC1(C)C (stereo partly drawn)
TGI [1]: > 100 µM
TGI [10]: > 100 µM
TGI [2]: > 100 µM
TGI [11]: > 100 µM
TGI [12]: > 100 µM
TGI [6]: > 100 µM
TGI [7]: > 100 µM
TGI [8]: > 100 µM
TGI [9]: > 100 µM

CC(C)=CCSC1CC2C(CC1(C)O)C2(C)C (stereo not drawn)
TGI [1]: 32.5 µM and 30.8 µM
TGI [2]: 28.3 µM and 31.4 µM
TGI [13]: 30.4 µM and 27 µM
GI50 [4]: 13.3 µM and 4.38 µM
TGI [4]: 26.9 µM and 18.8 µM
TGI [11]: 31.2 µM and 23.6 µM
TGI [12]: 31.3 µM and 30.7 µM
GI50 [6]: 14.7 µM and 6.59 µM
TGI [6]: 28.5 µM and 20.1 µM
TGI [7]: 28.2 µM and 29.7 µM
TGI [8]: 30.1 µM and 23.7 µM
GI50 [9]: 14.4 µM and 6.12 µM
TGI [9]: 28.2 µM and 20.8 µM

CC(C)C[P+](c1ccccc1)(c1ccccc1)c1ccccc1
TGI [1]: 15.7 µM
TGI [10]: > 100 µM
TGI [2]: 30 µM
TGI [13]: 26.3 µM
TGI [3]: > 100 µM
TGI [4]: > 100 µM
TGI [11]: 84.6 µM
TGI [12]: > 100 µM
TGI [6]: 18.2 µM
TGI [7]: 87.4 µM
TGI [8]: > 100 µM
TGI [9]: > 100 µM

COC(=O)c1csc(-c2nc(CCNC(=O)OC(C)(C)C)sc2Br)n1
TGI [1]: > 100 µM
TGI [10]: > 100 µM
TGI [2]: > 100 µM
TGI [3]: > 100 µM
TGI [11]: > 100 µM
TGI [5]: > 100 µM
TGI [12]: > 100 µM
TGI [6]: > 100 µM
TGI [7]: > 100 µM
TGI [8]: > 100 µM
TGI [9]: > 100 µM

CSC1=C(c2ccc(Cl)cc2)SC(N2CCCCC2)N1c1ccc([N+](=O)[O-])cc1 (stereo not drawn)
TGI [1]: 81.3 µM
TGI [2]: > 100 µM
TGI [13]: 72.3 µM
TGI [3]: > 100 µM
TGI [4]: 63.3 µM
TGI [11]: 58.1 µM
TGI [5]: 63.4 µM
TGI [12]: > 100 µM
TGI [6]: 29.9 µM
TGI [7]: 81.9 µM
TGI [8]: 96.2 µM
TGI [9]: > 100 µM

CCC(=O)O[C@H]1CC[C@H]2[C@@H]3CCC4=C/C(=N/NC(=O)c5cccc6c(=O)c7ccccc7[nH]c56)CC[C@]4(C)[C@H]3CC[C@]12C
TGI [1]: > 25 µM
TGI [2]: > 25 µM
TGI [13]: > 25 µM
TGI [3]: > 25 µM
TGI [4]: > 25 µM
TGI [11]: > 25 µM
TGI [5]: > 25 µM
TGI [12]: > 25 µM
TGI [6]: > 25 µM
TGI [7]: > 25 µM
TGI [8]: > 25 µM
TGI [9]: > 25 µM

COC(=O)CCC12CCC(O1)c1ccccc12 (stereo not drawn)
TGI [1]: > 100 µM
TGI [10]: > 100 µM
TGI [2]: > 100 µM
TGI [13]: > 100 µM
TGI [4]: > 100 µM
TGI [5]: > 100 µM
TGI [12]: > 100 µM
TGI [6]: > 100 µM
TGI [7]: > 100 µM
TGI [8]: > 100 µM
TGI [9]: > 100 µM

c1cc2c(c(-c3c4ccccc4nc4ccccc34)c1)CC1(CC2)OCCO1
TGI [1]: > 100 µM
TGI [2]: > 100 µM
TGI [13]: > 100 µM
TGI [4]: > 100 µM
TGI [11]: > 100 µM
TGI [5]: > 100 µM
TGI [12]: > 100 µM
TGI [6]: > 100 µM
TGI [7]: > 100 µM
TGI [8]: > 100 µM
TGI [9]: > 100 µM

CC(C)C1OC(=O)/C=C/C=C/C=C/C=C/C=C/CC(O)CC(O)CC(O)CC(O)CC(O)CC(O)CC(O)CC(O)/C=C/C1C (stereo not drawn)
TGI [1]: > 100 µM
TGI [10]: > 100 µM
TGI [2]: > 100 µM
TGI [13]: > 100 µM
TGI [11]: > 100 µM
TGI [5]: > 100 µM
TGI [12]: > 100 µM
TGI [6]: > 100 µM
TGI [8]: > 100 µM
TGI [9]: > 100 µM

S=C1N=C(Cl)C2(NN1)c1ccccc1-c1ccccc12
TGI [1]: > 10 µM
TGI [10]: > 10 µM
TGI [2]: > 10 µM
TGI [13]: > 10 µM
TGI [3]: > 10 µM
TGI [12]: > 10 µM
TGI [6]: > 10 µM
TGI [7]: > 10 µM
TGI [8]: > 10 µM
TGI [9]: > 10 µM

CN1CN(c2ccccc2)C2(CCN(CCc3csc4ccccc34)CC2)C1=O
TGI [1]: 35.7 µM
TGI [10]: 54.2 µM
TGI [2]: 43 µM
TGI [4]: 34.4 µM
TGI [11]: 26.6 µM
TGI [5]: 33.5 µM
TGI [12]: 29.7 µM
TGI [6]: 33.3 µM
TGI [7]: 76.9 µM
TGI [8]: 38.5 µM
TGI [9]: 14.3 µM

COc1cc2c(c(OC)c1OC)-c1ccc(SC)cc1[C@H](OC(=O)c1ccccc1)CC2
TGI [1]: 0.446 µM
TGI [10]: > 61 µM
TGI [2]: > 100 µM
TGI [13]: > 100 µM
TGI [11]: > 100 µM
TGI [12]: > 100 µM
TGI [6]: 1.21 µM
TGI [7]: > 100 µM
TGI [8]: > 100 µM
TGI [9]: > 100 µM

CC(=O)Nc1ccc2[nH]c(-c3cccc(F)c3)cc(=O)c2c1
TGI [1]: > 65.5 µM
TGI [2]: > 100 µM
TGI [13]: > 55.1 µM
TGI [3]: > 28.2 µM
TGI [4]: 20.2 µM
TGI [5]: > 100 µM
TGI [12]: > 100 µM
TGI [6]: 27.8 µM
TGI [7]: > 100 µM
TGI [9]: > 82.2 µM

Reference: PubChem BioAssay (NCI)
